Assay results reported in PubChem BioAssay AID651867 (The Scripps Research Institute Molecular Screening Center, 2012).

Biological target: Protein-arginine deiminase type-4 (Homo sapiens) (UniProt Q9UM07)
Assay: PubChem AID 651867
Conditions: recombinant PAD4, BAEE citrulline colorimetric, time-dependent inactivation; at 10 µM; active compounds read high

Chain of Protein-arginine deiminase type-4 (Homo sapiens) (Q9UM07 whole entry, looked up): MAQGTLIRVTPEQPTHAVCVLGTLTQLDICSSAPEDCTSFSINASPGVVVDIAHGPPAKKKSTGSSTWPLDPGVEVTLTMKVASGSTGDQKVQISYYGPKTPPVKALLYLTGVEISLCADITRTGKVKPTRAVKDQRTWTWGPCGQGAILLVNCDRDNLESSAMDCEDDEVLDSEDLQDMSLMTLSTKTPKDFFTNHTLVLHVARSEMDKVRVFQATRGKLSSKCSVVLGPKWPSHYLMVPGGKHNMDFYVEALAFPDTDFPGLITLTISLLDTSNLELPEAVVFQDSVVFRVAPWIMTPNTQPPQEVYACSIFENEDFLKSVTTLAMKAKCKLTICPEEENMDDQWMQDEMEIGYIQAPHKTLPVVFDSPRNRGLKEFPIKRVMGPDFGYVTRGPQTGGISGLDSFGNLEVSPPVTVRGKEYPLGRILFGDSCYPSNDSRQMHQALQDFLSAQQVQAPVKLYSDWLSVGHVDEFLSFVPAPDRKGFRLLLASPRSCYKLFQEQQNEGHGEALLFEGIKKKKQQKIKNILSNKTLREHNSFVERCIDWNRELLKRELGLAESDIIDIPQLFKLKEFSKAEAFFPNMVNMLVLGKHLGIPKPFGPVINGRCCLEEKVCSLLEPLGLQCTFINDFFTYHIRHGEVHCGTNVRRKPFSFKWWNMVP

kinact/KI: 88.3 M⁻¹ s⁻¹
SMILES: NC1=CC(=O)c2ccc(-c3cccc(C(=O)O)n3)nc2C1=O
